Experimental data published in patent US6391577B1, “Rapid electrochemical assay for antibiotic and cytotoxic drug susceptibility in microorganisms” (priority 1999, dated 2002).
pIC50: −log10 of the molar value. ≈ marks a conversion by molar mass, not a printed value. Where “and” joins values, the source holds several entries; their conditions need not be identical. Equal values may be shown once.

What was measured:
[1] = tested on: Clostridium sporogenes (ATCC 8075); test: Mediated chronocoulometric respiration assay (ferricyanide + DCIP, anaerobic); format: cell-based; conditions: for Mediated Chronocoulometric Respiratory Activity Remaining, Percent: average of two measurements, 20 min + 20 min at 37 C under nitrogen
Experimental: This organism was chosen as a typical gram-positive, obligate anaerobe. Growth under anaerobic conditions was accomplished using a similar medium to that used for E. coli except that the concentrations of yeast extract and tryptone were doubled and the concentration of glucose was five-fold lower for the C. sporogenes growth. Assay conditions were the same as in Example 2, with the following exceptions. The incubation of 20 μL of the bacterial suspension with 130 μL of either the blank buffer or the chloramphenicol or lysozyme solution was done for 20 min at 37 C. Mediator solution (150 μL) containing 0.10 M ferricyanide and 10 μM 2,6-dichlorophenolindophenol (DCIP) was then added and the mixture was allowed to incubate for another 20 min at 37 C, giving final concentrations of 0.050 M ferricyanide and 5 μM DCIP, respectively. All manipulations were performed under a stream of nitrogen, to ensure the absence of oxygen, which is known to inhibit the growth of C. sporogenes. Measurement by chronocoulometry was performed in an identical manner as in Example 2.

[2] = tested on: Clostridium sporogenes (ATCC 8075); conditions: see Bergey; cited from earlier work
E. coli JM105 [3] = test: Chronocoulometric mediated respiration assay (ferricyanide); format: cell-based
Experimental: At this time, a platinum disk working electrode, Ag/AgCl reference electrode and a stainless steel auxiliary electrode are inserted, and a potential of +0.50 V is applied using a potentiostat. The measured current is integrated over time to produce a plot of total charge against time. The change in total charge is measured between 60 and 120 seconds after the potential is applied. The same procedures for E. coli growth, incubation with ferricyanide and antibiotic, and measurement were used in this Example as were used in Example 2. One antibiotic was studied for the effect of concentration, and this was chloramphenicol.

E. coli JM105 [4] = test: Integrated current (charge) measurement after incubation with lysozyme or EDTA; format: cell-based; conditions: for Charge: single measurements, charge between 60 and 120 s
Experimental: E. coli JM105 was grown in the same manner as in Example 1. The assay procedure used to determine the effect of lysozyme on mediated electrochemical respiration rate was as follows. […] Ferricyanide solution (270 μL) was then added so that the final ferricyanide concentration was 50 mM. These solutions were incubated at 37 C for 10 min. Each sample was then analyzed electrochemically using a Pt working electrode, Ag/AgCl reference electrode and a stainless steel auxilliary electrode, with an applied potential of +0.500 V. The current measured at the working electrode was integrated over the time between 60 and 120 seconds. These experiments were repeated to determine average values of integrated current (charge). The effect of ethylenediaminetetraacetate (EDTA) on electrochemical response was investigated in a similar manner. […] The samples were incubated 10 min at 37 C, and the electrochemical analysis was done as described above for lysozyme.

O=C(N[C@H](CO)[C@H](O)c1ccc([N+](=O)[O-])cc1)C(Cl)Cl [Chloramphenicol]
Mediated Chronocoulometric Respiratory Activity Remaining, Percent ([1]; final concentration 5.00 mM): 24% | activity against growth [2]: active against the growth of this strain of Clostridium | pIC50 (E. coli JM105 [3]; Escherichia coli, JM105, from the concentration series of Table 5): 4.32 | MIC (E. coli JM105 [3]; Escherichia coli, JM105, from the concentration series of Table 5, read-out: minimum inhibitory concentration): 0.48 µM (≈ 0.155 µg/mL) | Mediated Chronocoulometric Respiration Activity Remaining, Percent (E. coli JM105 [3]; chloramphenicol 0.0048 μM): 95% | Mediated Chronocoulometric Respiration Activity Remaining, Percent (E. coli JM105 [3]; chloramphenicol 0.048 μM): 102% | Mediated Chronocoulometric Respiration Activity Remaining, Percent (E. coli JM105 [3]; chloramphenicol 0.48 μM): 66% | Mediated Chronocoulometric Respiration Activity Remaining, Percent (E. coli JM105 [3]; chloramphenicol 4.8 μM): 58% | Mediated Chronocoulometric Respiration Activity Remaining, Percent (E. coli JM105 [3]; chloramphenicol 48 μM): 52% | Mediated Chronocoulometric Respiration Activity Remaining, Percent (E. coli JM105 [3]; chloramphenicol 480 μM): 35% | Mediated Chronocoulometric Respiration Activity Remaining, Percent (E. coli JM105 [3]; chloramphenicol 4800 μM): 5%

Lysozyme: an enzyme that destroys cell walls and is used extensively in protein purification procedures
Mediated Chronocoulometric Respiratory Activity Remaining, Percent ([1]; final concentration 0.57 mg/mL): 80% | loss of activity ([1]; lysozyme, conditions of Example 5): 20% | Charge, Average (E. coli JM105 [4]; lysozyme solution 1.5 mg/mL, blank 32 +/− 3): 22 +/− 1 μC | loss of activity (E. coli JM105 [4]; lysozyme, conditions of Example 3): 31% | Charge (E. coli JM105 [4]; lysozyme solution 1.5 mg/mL, 15 min at 0 C, then 10 min at 37 C with 50 mM ferricyanide): 21.1 μC and 22.8 μC and 21.6 μC

O=C(O)CN(CCN(CC(=O)O)CC(=O)O)CC(=O)O [EDTA, Ethylenediaminetetraacetate]
Charge, Average (E. coli JM105 [4]; 5 mM EDTA, blank 38 +/− 2): 45 +/− 2 μC | Charge (E. coli JM105 [4]; 5 mM EDTA in 50 mM ferricyanide, 10 min at 37 C): 46.3 μC and 43.1 μC and 45.2 μC and 43.3 μC
